One substance from paper PMC6450558 (Angewandte Chemie (International ed. in English), 2019) can be followed below.

For the test, the target named is T1, human ST6Gal-I (Homo sapiens, UniProt P15907).
T1 sequence (P15907 1-406): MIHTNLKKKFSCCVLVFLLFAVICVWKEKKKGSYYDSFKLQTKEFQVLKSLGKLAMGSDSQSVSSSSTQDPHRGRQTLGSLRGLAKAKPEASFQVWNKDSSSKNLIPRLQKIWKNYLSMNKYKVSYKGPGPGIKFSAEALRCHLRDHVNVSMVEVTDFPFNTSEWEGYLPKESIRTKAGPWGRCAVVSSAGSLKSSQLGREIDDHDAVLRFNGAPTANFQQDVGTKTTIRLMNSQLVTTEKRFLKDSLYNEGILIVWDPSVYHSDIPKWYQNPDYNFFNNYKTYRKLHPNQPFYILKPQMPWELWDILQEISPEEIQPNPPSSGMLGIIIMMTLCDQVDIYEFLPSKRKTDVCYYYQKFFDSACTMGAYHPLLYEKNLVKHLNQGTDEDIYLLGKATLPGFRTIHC
As to the kind of experiment: sialyltransferase kinetics, donor varied. It is filed as biochemical. The following applies: read-out: ST6Gal-I / KM(app); acceptor LacNAc-butyl (11), fixed concentration.

Take CMP-Neu9NSydCl [compound 9]: the Km was found to be 86 ± 21 µM.
